# Reference: patent publication US20160367623A1, “AGONISTS OF GUANYLATE CYCLASE USEFUL FOR THE TREATMENT OF GASTROINTESTINAL DISORDERS, INFLAMMATION, CANCER AND OTHER DISORDERS” (priority 2015, published 2016)
# Bridge positions count the residues as written; N and C are the ends. Ends that are not written are not given here.
# System: patients with chronic idiopathic constipation (CIC)
# Assay: Second phase 3 CIC trial: change from baseline in stool consistency (BSFS)
# Format: in vivo, human
# Conditions: 6 mg
# [1] = Post-Treatment Week 14, ITT Population-Excluding Duplicate Patients
# [2] = Week 1, All Randomized (includes Duplicate Patients)
# [3] = Week 1, ITT Population-Excluding Duplicate Patients
# [4] = Week 2, All Randomized (includes Duplicate Patients)
# [5] = Week 2, ITT Population-Excluding Duplicate Patients
# [6] = Week 3, All Randomized (includes Duplicate Patients)
# [7] = Week 3, ITT Population-Excluding Duplicate Patients
# [8] = Week 4, All Randomized (includes Duplicate Patients)
# [9] = Week 4, ITT Population-Excluding Duplicate Patients
# [10] = Week 5, All Randomized (includes Duplicate Patients)
# [11] = Week 5, ITT Population-Excluding Duplicate Patients
# [12] = Week 6, All Randomized (includes Duplicate Patients)
# [13] = Week 6, ITT Population-Excluding Duplicate Patients
# [14] = Week 7, All Randomized (includes Duplicate Patients)
# [15] = Week 7, ITT Population-Excluding Duplicate Patients
# [16] = Week 8, All Randomized (includes Duplicate Patients)
# [17] = Week 8, ITT Population-Excluding Duplicate Patients
substance,measurement,setting,value
"Asn^1-Asp^2-Glu^3-Cys^4-Glu^5-Leu^6-Cys^7-Val^8-Asn^9-Val^10-Ala^11-Cys^12-Thr^13-Gly^14-Cys^15-Leu^16 (NDECELCVNVACTGCL; disulfide 4-12, 7-15) [Plecanatide, uroguanylin analogue, guanylate cyclase-C agonist; (C4:C12, C7:C15) bicycle peptide]","Change from Baseline in Stool Consistency, LS Mean (SE)",[1],1.07 (0.074)
same,"Change from Baseline in Stool Consistency, Mean (SD)",[1],1.05 (1.358)
same,"Change from Baseline in Stool Consistency, Difference from Placebo",[2],0.84
same,"Change from Baseline in Stool Consistency, LS Mean (SE)",[2],1.41 (0.071)
same,"Change from Baseline in Stool Consistency, Mean (SD)",[2],1.43 (1.501)
same,"Change from Baseline in Stool Consistency, Difference from Placebo","Week 1, ITT Population",0.84
same,"Change from Baseline in Stool Consistency, LS Mean (SE)","Week 1, ITT Population",1.44 (0.073)
same,"Change from Baseline in Stool Consistency, Mean (SD)","Week 1, ITT Population",1.45 (1.501)
same,"Change from Baseline in Stool Consistency, Difference from Placebo",[3],0.86
same,"Change from Baseline in Stool Consistency, LS Mean (SE)",[3],1.47 (0.073)
same,"Change from Baseline in Stool Consistency, Mean (SD)",[3],1.47 (1.495)
same,"Change from Baseline in Stool Consistency, Difference from Placebo",[4],0.67
same,"Change from Baseline in Stool Consistency, LS Mean (SE)",[4],1.36 (0.071)
same,"Change from Baseline in Stool Consistency, Mean (SD)",[4],1.36 (1.560)
same,"Change from Baseline in Stool Consistency, Difference from Placebo","Week 2, ITT Population",0.68
same,"Change from Baseline in Stool Consistency, LS Mean (SE)","Week 2, ITT Population",1.39 (0.073)
same,"Change from Baseline in Stool Consistency, Mean (SD)","Week 2, ITT Population",1.38 (1.560)
same,"Change from Baseline in Stool Consistency, Difference from Placebo",[5],0.68
same,"Change from Baseline in Stool Consistency, LS Mean (SE)",[5],1.41 (0.074)
same,"Change from Baseline in Stool Consistency, Mean (SD)",[5],1.39 (1.562)
same,"Change from Baseline in Stool Consistency, Difference from Placebo",[6],0.53
same,"Change from Baseline in Stool Consistency, LS Mean (SE)",[6],1.41 (0.072)
same,"Change from Baseline in Stool Consistency, Mean (SD)",[6],1.44 (1.479)
same,"Change from Baseline in Stool Consistency, Difference from Placebo","Week 3, ITT Population",0.54
same,"Change from Baseline in Stool Consistency, LS Mean (SE)","Week 3, ITT Population",1.44 (0.074)
same,"Change from Baseline in Stool Consistency, Mean (SD)","Week 3, ITT Population",1.46 (1.480)
same,"Change from Baseline in Stool Consistency, Difference from Placebo",[7],0.55
same,"Change from Baseline in Stool Consistency, LS Mean (SE)",[7],1.46 (0.074)
same,"Change from Baseline in Stool Consistency, Mean (SD)",[7],1.47 (1.485)
same,"Change from Baseline in Stool Consistency, Difference from Placebo",[8],0.54
same,"Change from Baseline in Stool Consistency, LS Mean (SE)",[8],1.41 (0.071)
same,"Change from Baseline in Stool Consistency, Difference from Placebo","Week 4, ITT Population",0.52
same,"Change from Baseline in Stool Consistency, LS Mean (SE)","Week 4, ITT Population",1.42 (0.074)
same,"Change from Baseline in Stool Consistency, Mean (SD)","Week 4, ITT Population",1.42 (1.603)
same,"Change from Baseline in Stool Consistency, Difference from Placebo",[9],0.53
same,"Change from Baseline in Stool Consistency, LS Mean (SE)",[9],1.44 (0.074)
same,"Change from Baseline in Stool Consistency, Mean (SD)",[9],1.42 (1.608)
same,"Change from Baseline in Stool Consistency, Difference from Placebo",[10],0.67
same,"Change from Baseline in Stool Consistency, LS Mean (SE)",[10],1.52 (0.072)
same,"Change from Baseline in Stool Consistency, Difference from Placebo","Week 5, ITT Population",0.68
same,"Change from Baseline in Stool Consistency, LS Mean (SE)","Week 5, ITT Population",1.55 (0.074)
same,"Change from Baseline in Stool Consistency, Mean (SD)","Week 5, ITT Population",1.57 (1.594)
same,"Change from Baseline in Stool Consistency, Difference from Placebo",[11],0.69
same,"Change from Baseline in Stool Consistency, LS Mean (SE)",[11],1.58 (0.075)
same,"Change from Baseline in Stool Consistency, Mean (SD)",[11],1.58 (1.598)
same,"Change from Baseline in Stool Consistency, Difference from Placebo",[12],0.70
same,"Change from Baseline in Stool Consistency, LS Mean (SE)",[12],1.51 (0.072)
same,"Change from Baseline in Stool Consistency, Difference from Placebo","Week 6, ITT Population",0.72
same,"Change from Baseline in Stool Consistency, LS Mean (SE)","Week 6, ITT Population",1.55 (0.074)
same,"Change from Baseline in Stool Consistency, Mean (SD)","Week 6, ITT Population",1.57 (1.517)
same,"Change from Baseline in Stool Consistency, Difference from Placebo",[13],0.74
same,"Change from Baseline in Stool Consistency, LS Mean (SE)",[13],1.57 (0.075)
same,"Change from Baseline in Stool Consistency, Mean (SD)",[13],1.58 (1.520)
same,"Change from Baseline in Stool Consistency, Difference from Placebo",[14],0.64
same,"Change from Baseline in Stool Consistency, LS Mean (SE)",[14],1.50 (0.072)
same,"Change from Baseline in Stool Consistency, Difference from Placebo","Week 7, ITT Population",0.64
same,"Change from Baseline in Stool Consistency, LS Mean (SE)","Week 7, ITT Population",1.54 (0.074)
same,"Change from Baseline in Stool Consistency, Mean (SD)","Week 7, ITT Population",1.56 (1.540)
same,"Change from Baseline in Stool Consistency, Difference from Placebo",[15],0.67
same,"Change from Baseline in Stool Consistency, LS Mean (SE)",[15],1.56 (0.075)
same,"Change from Baseline in Stool Consistency, Mean (SD)",[15],1.57 (1.544)
same,"Change from Baseline in Stool Consistency, Difference from Placebo",[16],0.57
same,"Change from Baseline in Stool Consistency, LS Mean (SE)",[16],1.48 (0.072)
same,"Change from Baseline in Stool Consistency, Difference from Placebo","Week 8, ITT Population",0.58
same,"Change from Baseline in Stool Consistency, LS Mean (SE)","Week 8, ITT Population",1.51 (0.074)
same,"Change from Baseline in Stool Consistency, Mean (SD)","Week 8, ITT Population",1.53 (1.539)
same,"Change from Baseline in Stool Consistency, Difference from Placebo",[17],0.60
same,"Change from Baseline in Stool Consistency, LS Mean (SE)",[17],1.53 (0.075)
same,"Change from Baseline in Stool Consistency, Mean (SD)",[17],1.54 (1.543)
same,"Change from Baseline in Stool Consistency, Difference from Placebo","Week 9, All Randomized (includes Duplicate Patients)",0.67
